Reference: ChEMBL document CHEMBL1201862, “PubChem BioAssay data set” (2004)
The source made the active and inactive calls.

How the values were obtained:
[1] = molecular target: Nonstructural protein 1 (Influenza A virus, UniProt Q194T2); format: functional, Influenza A virus (A/California/07/2009(H1N1))
[2] = molecular target: Heat shock protein HSP 90-alpha (Homo sapiens, UniProt P07900); format: functional, organism-based
[3] = molecular target: Large T antigen (Simian virus 40, UniProt P03070); format: functional, Betapolyomavirus macacae;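 further: Confirmatory-stage PubChem screen for compounds that inhibit SV40 T antigen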
Chain of Large T antigen (P03070 whole entry): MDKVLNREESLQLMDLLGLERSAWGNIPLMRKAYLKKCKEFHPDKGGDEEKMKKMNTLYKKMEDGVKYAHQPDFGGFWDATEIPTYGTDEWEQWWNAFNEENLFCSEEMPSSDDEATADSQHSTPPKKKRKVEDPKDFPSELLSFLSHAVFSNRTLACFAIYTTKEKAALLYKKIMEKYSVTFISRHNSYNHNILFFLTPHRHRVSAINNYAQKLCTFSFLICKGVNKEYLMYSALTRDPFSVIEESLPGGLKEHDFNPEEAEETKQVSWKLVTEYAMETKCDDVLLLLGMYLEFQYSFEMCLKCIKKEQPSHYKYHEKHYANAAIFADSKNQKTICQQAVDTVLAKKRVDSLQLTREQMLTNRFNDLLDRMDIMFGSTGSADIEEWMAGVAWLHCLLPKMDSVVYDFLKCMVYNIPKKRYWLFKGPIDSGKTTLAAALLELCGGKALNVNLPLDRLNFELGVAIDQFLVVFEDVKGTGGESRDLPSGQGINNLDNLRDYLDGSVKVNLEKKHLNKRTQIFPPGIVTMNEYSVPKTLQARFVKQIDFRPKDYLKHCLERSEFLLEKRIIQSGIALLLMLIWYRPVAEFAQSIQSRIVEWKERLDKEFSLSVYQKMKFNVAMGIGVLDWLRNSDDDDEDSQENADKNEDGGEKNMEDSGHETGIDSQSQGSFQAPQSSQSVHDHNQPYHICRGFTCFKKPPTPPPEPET

[4] = molecular target: Eukaryotic translation initiation factor 4E (Mus musculus, UniProt P63073); assay: eIF4E–eIF4G protein interaction inhibitors, dose response, biochemical, TR-FRET (AID 855); format: functional;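 further: potency for disrupting eIF4E binding to eIF4GI seen as loss of FRET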
Chain of Eukaryotic translation initiation factor 4E (P63073 whole entry): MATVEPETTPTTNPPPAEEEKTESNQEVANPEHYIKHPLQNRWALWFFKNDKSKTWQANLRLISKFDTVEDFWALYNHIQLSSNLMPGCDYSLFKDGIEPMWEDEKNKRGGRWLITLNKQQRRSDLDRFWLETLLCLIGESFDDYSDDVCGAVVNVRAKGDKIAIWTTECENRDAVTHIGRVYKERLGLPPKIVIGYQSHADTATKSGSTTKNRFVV

[5] = molecular target: Luciferin 4-monooxygenase (Photinus pyralis, UniProt P08659); assay: firefly luciferase enzyme inhibitors, dose response, biochemical, luminescence (AID 1891)
Chain of Luciferin 4-monooxygenase (P08659 whole entry): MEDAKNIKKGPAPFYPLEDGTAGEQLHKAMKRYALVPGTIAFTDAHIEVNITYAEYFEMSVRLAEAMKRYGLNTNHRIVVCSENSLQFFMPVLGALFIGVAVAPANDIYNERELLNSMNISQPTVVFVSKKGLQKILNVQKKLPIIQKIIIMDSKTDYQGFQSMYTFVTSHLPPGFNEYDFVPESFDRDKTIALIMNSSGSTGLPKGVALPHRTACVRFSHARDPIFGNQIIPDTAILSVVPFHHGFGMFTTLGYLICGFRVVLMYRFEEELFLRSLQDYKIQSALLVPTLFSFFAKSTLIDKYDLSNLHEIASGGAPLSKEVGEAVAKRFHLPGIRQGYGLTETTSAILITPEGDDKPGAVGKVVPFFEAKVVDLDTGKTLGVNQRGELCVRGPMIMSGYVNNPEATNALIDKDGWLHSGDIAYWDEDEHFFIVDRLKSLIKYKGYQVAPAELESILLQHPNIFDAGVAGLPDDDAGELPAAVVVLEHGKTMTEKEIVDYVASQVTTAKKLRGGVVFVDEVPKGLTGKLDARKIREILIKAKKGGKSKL

[6] = Luminescence Cell-Based Dose Confirmation HTS to Identify Inhibitors of Platelet Dense Granule Release. [Related pubchem assays: 1663 (Primary HTS), 1678 (Summary of Project)]; format: functional
[7] = molecular target: T1, Carboxy-terminal domain RNA polymerase II polypeptide A small phosphatase 1 (Homo sapiens, UniProt Q9GZU7); assay: inhibitors of CTDSP1, concentration-response testing, biochemical assay, absorbance-based, actives from ultra-high-throughput screening (AID 540297); format: functional
T1 sequence (Q9GZU7 whole entry): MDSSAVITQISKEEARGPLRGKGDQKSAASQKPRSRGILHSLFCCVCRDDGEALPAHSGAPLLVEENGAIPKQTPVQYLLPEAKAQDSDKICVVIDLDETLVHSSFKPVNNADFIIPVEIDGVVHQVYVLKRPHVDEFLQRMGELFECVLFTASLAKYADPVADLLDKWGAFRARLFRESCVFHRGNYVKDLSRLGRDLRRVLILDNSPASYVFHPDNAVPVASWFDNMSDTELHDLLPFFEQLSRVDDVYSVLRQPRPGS

[8] = molecular target: Cytochrome P450 2C9 (Homo sapiens, UniProt P11712)
Chain of Cytochrome P450 2C9 (P11712 whole entry): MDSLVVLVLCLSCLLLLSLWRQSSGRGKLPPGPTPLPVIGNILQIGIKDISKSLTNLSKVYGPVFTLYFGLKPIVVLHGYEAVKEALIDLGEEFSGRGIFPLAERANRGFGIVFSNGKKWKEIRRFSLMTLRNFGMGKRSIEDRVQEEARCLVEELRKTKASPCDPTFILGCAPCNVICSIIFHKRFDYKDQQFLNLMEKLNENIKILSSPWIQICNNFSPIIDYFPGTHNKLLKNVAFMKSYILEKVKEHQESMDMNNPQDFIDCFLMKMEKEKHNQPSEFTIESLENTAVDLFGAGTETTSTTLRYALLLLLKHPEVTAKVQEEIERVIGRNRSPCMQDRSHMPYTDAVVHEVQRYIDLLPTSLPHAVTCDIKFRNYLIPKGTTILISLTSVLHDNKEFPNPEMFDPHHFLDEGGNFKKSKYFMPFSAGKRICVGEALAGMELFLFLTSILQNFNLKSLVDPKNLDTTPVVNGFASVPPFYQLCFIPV

[9] = molecular target: Cytochrome P450 3A4 (Homo sapiens, UniProt P08684);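 further: CYP3A4 tested as one member of a cytochrome P450 panel screen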
Chain of Cytochrome P450 3A4 (P08684 whole entry): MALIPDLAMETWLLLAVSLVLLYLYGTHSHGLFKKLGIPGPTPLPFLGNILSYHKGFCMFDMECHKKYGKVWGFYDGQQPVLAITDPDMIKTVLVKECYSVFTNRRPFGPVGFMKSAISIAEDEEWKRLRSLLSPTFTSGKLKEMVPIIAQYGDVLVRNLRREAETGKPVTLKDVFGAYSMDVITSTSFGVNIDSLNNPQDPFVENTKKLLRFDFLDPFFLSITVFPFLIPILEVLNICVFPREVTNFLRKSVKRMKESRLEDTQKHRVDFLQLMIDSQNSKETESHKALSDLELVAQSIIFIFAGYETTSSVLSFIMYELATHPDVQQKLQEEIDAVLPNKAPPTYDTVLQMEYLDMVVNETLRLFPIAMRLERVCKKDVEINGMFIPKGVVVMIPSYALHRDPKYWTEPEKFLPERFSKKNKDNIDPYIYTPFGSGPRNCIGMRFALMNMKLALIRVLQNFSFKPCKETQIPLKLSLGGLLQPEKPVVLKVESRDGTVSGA

[10] = inhibitors of intracellular T. cruzi replication, confirmation, NIH3T3 host cells, beta-gal luminescence (AID 2044); format: functional, cell-based;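 further: intracellular parasites grown in NIH/3T3 mouse fibroblasts as host cells; luminescent beta-galactosidase reporter signal from transgenic T. cruzi replicating inside host cells; inhibitors lower the luminescence signal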
[11] = molecular target: T2, Short transient receptor potential channel 4 (Mus musculus, UniProt Q9QUQ5); assay: mouse TRPC4 channel activators, dose response, cell-based, HEK293 TRPC4/mu-opioid, Fluo-4 calcium (AID 434937); format: functional
T2 sequence (Q9QUQ5 whole entry): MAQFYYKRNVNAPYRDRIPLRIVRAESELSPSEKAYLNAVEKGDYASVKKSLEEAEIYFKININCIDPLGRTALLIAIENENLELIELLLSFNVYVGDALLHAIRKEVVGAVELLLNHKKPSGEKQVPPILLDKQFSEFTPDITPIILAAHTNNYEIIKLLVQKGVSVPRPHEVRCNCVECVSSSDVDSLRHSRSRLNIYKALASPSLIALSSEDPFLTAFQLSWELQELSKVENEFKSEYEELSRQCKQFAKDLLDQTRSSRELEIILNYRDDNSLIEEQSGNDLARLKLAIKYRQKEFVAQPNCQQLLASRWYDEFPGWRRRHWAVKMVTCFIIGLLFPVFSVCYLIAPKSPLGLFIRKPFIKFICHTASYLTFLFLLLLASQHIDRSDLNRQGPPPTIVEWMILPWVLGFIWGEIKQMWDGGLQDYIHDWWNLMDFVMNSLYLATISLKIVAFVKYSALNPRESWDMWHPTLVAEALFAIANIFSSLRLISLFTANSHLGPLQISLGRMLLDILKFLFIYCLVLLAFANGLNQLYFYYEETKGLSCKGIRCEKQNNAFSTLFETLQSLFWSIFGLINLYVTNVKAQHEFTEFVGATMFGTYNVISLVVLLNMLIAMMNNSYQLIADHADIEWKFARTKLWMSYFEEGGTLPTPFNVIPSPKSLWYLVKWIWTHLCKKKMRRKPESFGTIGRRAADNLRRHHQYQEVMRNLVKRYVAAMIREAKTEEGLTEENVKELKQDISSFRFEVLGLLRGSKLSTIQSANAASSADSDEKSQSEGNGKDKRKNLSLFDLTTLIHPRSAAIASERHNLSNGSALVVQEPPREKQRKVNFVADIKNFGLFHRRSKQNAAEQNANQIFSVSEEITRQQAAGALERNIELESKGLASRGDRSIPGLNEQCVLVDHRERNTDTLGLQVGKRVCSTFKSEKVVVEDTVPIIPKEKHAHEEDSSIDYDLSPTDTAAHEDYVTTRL

[12] = cytotoxicity toward NIH3T3 fibroblasts, dose response, counter-screen, cell-based, ATP luminescence, mouse fibroblasts (AID 2010); format: functional;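 further: cells exposed to compound for about 90 hours before reading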
[13] = molecular target: FAD-linked sulfhydryl oxidase ALR (Homo sapiens, UniProt P55789); assay: inhibitors of human ALR sulfhydryl oxidase, dose response, biochemical, H2O2 detection, luminescence, cherry-pick (AID 493248)
Chain of FAD-linked sulfhydryl oxidase ALR (P55789 whole entry): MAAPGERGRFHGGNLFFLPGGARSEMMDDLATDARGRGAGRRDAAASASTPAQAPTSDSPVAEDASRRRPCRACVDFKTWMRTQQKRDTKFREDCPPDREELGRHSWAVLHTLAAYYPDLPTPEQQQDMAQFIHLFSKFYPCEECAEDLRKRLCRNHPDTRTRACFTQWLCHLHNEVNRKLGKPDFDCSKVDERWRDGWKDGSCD

[14] = molecular target: T3, Leucine aminopeptidase (Plasmodium falciparum 3D7, UniProt Q8IL11); assay: P. falciparum M17LAP inhibitors, primary screen, biochemical, fluorogenic H-Leu-NHMec substrate, 1536-well (AID 1619); format: functional
T3 sequence (Q8IL11 whole entry): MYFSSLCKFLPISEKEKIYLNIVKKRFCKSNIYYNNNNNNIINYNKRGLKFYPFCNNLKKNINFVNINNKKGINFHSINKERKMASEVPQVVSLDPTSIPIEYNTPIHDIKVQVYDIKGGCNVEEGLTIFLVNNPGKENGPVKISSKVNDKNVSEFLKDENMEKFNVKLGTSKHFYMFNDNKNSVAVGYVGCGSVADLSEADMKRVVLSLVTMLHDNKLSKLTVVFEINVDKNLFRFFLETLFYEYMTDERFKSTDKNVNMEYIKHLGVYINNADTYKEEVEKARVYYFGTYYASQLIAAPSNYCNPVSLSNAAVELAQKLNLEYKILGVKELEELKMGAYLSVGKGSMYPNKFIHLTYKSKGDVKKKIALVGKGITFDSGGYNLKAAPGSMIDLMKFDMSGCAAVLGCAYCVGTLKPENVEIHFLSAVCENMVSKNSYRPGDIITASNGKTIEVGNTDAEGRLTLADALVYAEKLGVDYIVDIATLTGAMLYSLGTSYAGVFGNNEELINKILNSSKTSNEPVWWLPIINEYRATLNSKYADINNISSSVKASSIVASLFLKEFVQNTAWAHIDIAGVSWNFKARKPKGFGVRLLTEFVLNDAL

[15] = molecular target: T4, Heat shock factor protein 1 (Mus musculus, UniProt P38532); assay: HSF1 potentiators in luciferase reporter cells, confirmation, cell-based, NIH3T3, luminescence, dose retest (AID 435004); format: functional;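 further: stress induced by proteasome inhibitor MG132 added 30 min after compound; luciferase reporter driven by HSF1 response element in NIH3T3 cells; actives raise luminescence as potentiators of the MG132 stress response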
T4 sequence (P38532 whole entry): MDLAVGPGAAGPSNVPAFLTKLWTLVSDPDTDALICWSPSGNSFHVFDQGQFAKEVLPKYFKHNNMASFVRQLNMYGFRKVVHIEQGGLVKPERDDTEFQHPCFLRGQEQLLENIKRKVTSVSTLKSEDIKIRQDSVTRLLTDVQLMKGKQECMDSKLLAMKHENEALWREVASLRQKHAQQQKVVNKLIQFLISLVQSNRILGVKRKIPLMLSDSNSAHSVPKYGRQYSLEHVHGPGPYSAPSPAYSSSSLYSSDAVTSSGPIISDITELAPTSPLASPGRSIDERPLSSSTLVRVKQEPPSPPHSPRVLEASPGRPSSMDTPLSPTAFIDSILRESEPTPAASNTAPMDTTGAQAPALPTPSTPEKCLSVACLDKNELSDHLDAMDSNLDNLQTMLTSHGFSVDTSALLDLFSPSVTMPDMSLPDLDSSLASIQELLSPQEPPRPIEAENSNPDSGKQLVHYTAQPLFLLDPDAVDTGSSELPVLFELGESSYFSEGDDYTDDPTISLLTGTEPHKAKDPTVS

[16] = molecular target: T2, Short transient receptor potential channel 4; assay: mouse TRPC4 channel inhibitors, dose response, cell-based, HEK293 TRPC4/mu-opioid, Fluo-4 calcium (AID 434942); format: functional;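 further: potency of inhibitors blocking the TRPC4 calcium response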
[17] = molecular target: Cytochrome P450 2C19 (Homo sapiens, UniProt P33261); assay: Cytochrome panel assay with activity outcomes. Panel member name: p450-cyp2c19 Compounds with AC50 equal or less than 10 uM are considered active; format: functional; details: read-out: AC50
Chain of Cytochrome P450 2C19 (P33261 whole entry): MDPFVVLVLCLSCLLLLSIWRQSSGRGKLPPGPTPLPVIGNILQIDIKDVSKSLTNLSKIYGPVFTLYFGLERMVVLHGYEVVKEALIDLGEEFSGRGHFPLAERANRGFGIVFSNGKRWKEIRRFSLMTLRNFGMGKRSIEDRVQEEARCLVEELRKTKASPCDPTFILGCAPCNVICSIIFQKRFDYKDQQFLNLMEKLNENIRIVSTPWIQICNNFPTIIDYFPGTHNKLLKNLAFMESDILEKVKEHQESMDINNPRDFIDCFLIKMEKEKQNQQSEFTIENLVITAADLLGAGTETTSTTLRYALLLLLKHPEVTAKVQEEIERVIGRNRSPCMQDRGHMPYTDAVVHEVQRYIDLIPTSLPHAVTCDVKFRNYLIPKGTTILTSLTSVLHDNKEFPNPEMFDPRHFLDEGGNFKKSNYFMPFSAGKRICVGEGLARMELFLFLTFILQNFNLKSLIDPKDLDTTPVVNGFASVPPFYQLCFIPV

[18] = HepG2 cell cytotoxicity, dose response, cytotoxicity control for Shn3 inhibitor project, CellTiter-Glo, cherry-picked (AID 624134); format: functional, cell-based
[19] = Shn3 3'UTR reporter inhibitors, dose response, cell-based, Clone20 osteoblasts, firefly luciferase, cherry-picked (AID 624132); format: functional;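 further: firefly luciferase luminescence from reporter carrying the Shn3 3'UTR in osteoblasts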
[20] = molecular target: Genome polyprotein (dengue virus type 2, UniProt P29990); assay: Dengue-2 NS5 methyltransferase inhibitors, primary screen, biochemical, confirmation dose response (AID 588689); format: functional
Chain of Genome polyprotein (P29990 2492-3391 limits assumed): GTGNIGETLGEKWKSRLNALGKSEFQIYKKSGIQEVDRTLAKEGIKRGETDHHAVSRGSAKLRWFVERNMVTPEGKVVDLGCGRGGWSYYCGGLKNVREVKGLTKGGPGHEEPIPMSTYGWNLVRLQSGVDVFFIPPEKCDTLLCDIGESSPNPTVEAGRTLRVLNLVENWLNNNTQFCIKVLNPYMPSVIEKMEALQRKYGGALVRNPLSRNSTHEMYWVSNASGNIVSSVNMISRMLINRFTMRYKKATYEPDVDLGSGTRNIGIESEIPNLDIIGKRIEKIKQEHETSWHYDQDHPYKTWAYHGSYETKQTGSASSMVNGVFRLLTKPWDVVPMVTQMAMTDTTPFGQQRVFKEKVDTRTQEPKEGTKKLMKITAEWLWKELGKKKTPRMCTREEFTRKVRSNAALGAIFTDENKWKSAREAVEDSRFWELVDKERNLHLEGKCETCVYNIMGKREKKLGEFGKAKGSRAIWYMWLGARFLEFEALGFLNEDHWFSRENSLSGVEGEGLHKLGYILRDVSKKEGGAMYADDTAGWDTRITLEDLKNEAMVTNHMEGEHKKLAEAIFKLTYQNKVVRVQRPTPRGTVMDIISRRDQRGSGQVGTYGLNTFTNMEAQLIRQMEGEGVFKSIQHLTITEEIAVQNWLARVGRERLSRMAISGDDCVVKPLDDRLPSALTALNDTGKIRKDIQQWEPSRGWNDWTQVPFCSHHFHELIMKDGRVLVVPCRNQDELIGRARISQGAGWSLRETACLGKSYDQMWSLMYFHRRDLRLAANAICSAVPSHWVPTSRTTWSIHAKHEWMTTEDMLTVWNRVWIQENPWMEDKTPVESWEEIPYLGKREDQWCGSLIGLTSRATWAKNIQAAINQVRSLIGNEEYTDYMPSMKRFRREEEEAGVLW

[21] = cytotoxicity in OVCAR8 ovarian cancer cells, dose response, PAX8 project, cell-based, plate reader, dry powder samples (AID 743197); format: functional; details: OVCAR-8
[22] = NIH:OVCAR-3 ovarian cancer cell cytotoxicity, dose response, PAX8 inhibitor project, plate reader, dry powder samples (AID 743044); format: functional, cell-based
[23] = molecular target: Paired box protein Pax-8 (Homo sapiens, UniProt Q06710); assay: inhibitors of PAX8-driven TPO luciferase reporter, dose response, RMG-I cells, cherry-pick (AID 687027); format: functional, cell-based;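 further: luciferase reporter driven by Pax8 target thyroperoxidase promoter measured by SteadyGlo luminescence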
Chain of Paired box protein Pax-8 (Q06710 whole entry): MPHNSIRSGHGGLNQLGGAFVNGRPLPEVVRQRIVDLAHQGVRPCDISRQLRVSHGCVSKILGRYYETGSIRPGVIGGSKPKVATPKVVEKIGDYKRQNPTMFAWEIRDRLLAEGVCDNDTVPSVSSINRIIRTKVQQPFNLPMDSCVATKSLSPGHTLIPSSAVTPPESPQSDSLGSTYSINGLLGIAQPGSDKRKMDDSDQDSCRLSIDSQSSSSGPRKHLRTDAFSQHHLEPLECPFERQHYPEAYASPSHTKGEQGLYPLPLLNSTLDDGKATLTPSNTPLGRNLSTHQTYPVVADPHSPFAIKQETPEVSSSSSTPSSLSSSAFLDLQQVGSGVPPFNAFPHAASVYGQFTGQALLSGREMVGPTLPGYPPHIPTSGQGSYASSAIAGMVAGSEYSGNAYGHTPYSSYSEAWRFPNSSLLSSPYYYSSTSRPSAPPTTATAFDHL

Chain of Nonstructural protein 1 (Q194T2 whole entry): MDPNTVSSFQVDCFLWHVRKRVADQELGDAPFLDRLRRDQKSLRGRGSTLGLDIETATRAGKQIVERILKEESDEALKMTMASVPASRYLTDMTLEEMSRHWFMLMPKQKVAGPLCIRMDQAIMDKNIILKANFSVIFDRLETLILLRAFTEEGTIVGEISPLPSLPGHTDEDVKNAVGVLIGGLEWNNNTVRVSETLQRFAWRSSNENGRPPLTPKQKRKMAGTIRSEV

## COc1cc(C=NO)nc(-c2ccccn2)c1
[1]
  IC50: 2.51 µM (active)
[2]
  AC50: 3.2 µM (active)

## Cc1ccsc1/C=N/n1c(S)nnc1-c1cccnc1
[3]
  IC50: 30.3 µM (active)
[4]
  IC50: > 64 µM (inactive)

## CC(C)COc1ccc(C(=O)Nc2ccc(NC(=O)c3ccco3)c(Cl)c2)cc1
[5]
  EC50: > 112 µM (not active)
[6]
  EC50: > 112 µM (not active)

## CCOC(=O)N(O)c1ccc(C=Cc2ccccc2)cc1
[7]
  IC50: 6.05 µM (active)

## COc1ccc(-c2nc3cnc(N4CCNCC4)nc3n(Cc3ccc(F)cc3)c2=O)cc1
[8]
  AC50: inconclusive
[9]
  AC50: 15.8 µM (inconclusive)

## Cc1cc(OCCCn2ccnc2)cc(C)c1Cl
[10]
  EC50: 0.852 µM (active)
[11]
  EC50: 5.31 µM (active)
[12]
  EC50: > 60 µM (not active)

## CCN(CC)CCNS(=O)(=O)c1ccc(C(=O)NN)cc1
[13]
  AC50: 3.39 µM (active)

## O=C(CSc1nc[nH]n1)Nc1ccc(S(=O)(=O)N2CCCC2)cc1
[14]
  IC50: 82.5 µM (active)

## CC1=C(C(=O)OCc2ccccc2)C(c2ccc(Cl)cc2Cl)NC(=O)N1CCCCCC(=O)O (stereo not given)
[14]
  IC50: 20.4 µM (active)

## NS(=O)(=O)c1cc2c(cc1Cl)N[C@@H](CC1CCCC1)NS2(=O)=O
[8]
  AC50: inconclusive

## COc1ccc(N2CC(C(=O)NCc3ccccc3)CC2=O)cc1 (stereo not given)
[5]
  EC50: > 112 µM (not active)
[6]
  EC50: > 112 µM (not active)

## CCCCN(CCCNC(=O)C1CCN(S(=O)(=O)CC)CC1)c1ccccc1
[15]
  EC50: > 260 µM (inactive)
[13]
  AC50: 0.131 µM (active)

## CC(C)N1C(=O)CC2(CC[N+](C)(CCOC(=O)C(O)(c3ccccc3)c3ccccc3)CC2)C1=O (stereo not given)
[7]
  IC50: 6.22 µM (active)

## O=C(NCc1ccccc1)C1=C[C@H](c2ccc3c(c2)OCO3)C[C@H](OCc2ccc(CO)cc2)O1
[11]
  EC50: 4.73 µM (active)
[16]
  EC50: 5.31 µM (active)

## CCCc1c(O)nc(SCCN(CC)CC)nc1O
[11]
  EC50: 1.68 µM (active)

## CC(C)CC(=O)n1sc(NC(=O)c2ccccc2)nc1=O
[14]
  IC50: 43.9 µM (active)

## Cc1cc(Br)ccc1OCCn1ccnc1
[11]
  EC50: 3.35 µM (active)

## Fc1ccc(C2CC(c3ccccc3)n3ncnc3N2)cc1 (stereo not given)
[5]
  EC50: > 112 µM (not active)
[6]
  EC50: > 112 µM (not active)

## CN(C)c1oc(-c2ccccc2)nc1C#N
[8]
  AC50: inconclusive

## Cc1[nH]c(=O)c(C#N)cc1-c1ccncc1 [MILRINONE]
[5]
  EC50: > 112 µM (not active)
[6]
  EC50: 0.634 µM (active)

## O=C(NCCc1cccs1)C1CC(c2c(Cl)cccc2Cl)=NO1 (stereo not given)
[8]
  AC50: inconclusive
[17]
  AC50: 0.282 µM (inconclusive)

## COc1cc2cc(C(N)=O)c(N)nc2cc1OC
[5]
  EC50: > 112 µM (not active)
[6]
  EC50: 40 µM (active)

## CCCN(CCC(=O)Nc1cc(OC)cc(OC)c1)CC1CC1
[11]
  EC50: 1.33 µM (active)

## Cn1nc(C(=O)OCC(=O)Nc2sccc2C(N)=O)c2ccccc2c1=O
[5]
  EC50: > 112 µM (not active)
[6]
  EC50: > 112 µM (not active)

## COc1ccc(Nc2ccc(S(=O)(=O)N3CCCCCC3)cc2[N+](=O)[O-])cc1
[1]
  IC50: 45.6 µM (active)

## C[C@@H]1CCCCO[C@H](CN(C)Cc2ccccc2)[C@@H](C)CN([C@H](C)CO)C(=O)c2cc(NC(=O)c3ccccc3)ccc2O1
[18]
  AC50: > 70 µM (inactive)
[19]
  AC50: 31.2 µM (active)

## CCCN1CCC(=NNC(=O)c2ccc(Br)o2)CC1
[4]
  IC50: > 64 µM (inactive)

## O=C1CC(N2CCc3ccccc32)C(=O)N1c1ccccc1 (stereo not given)
[13]
  AC50: 0.677 µM (active)

## Cc1ccc2nc(Cl)c(C3CC(c4cccs4)=NN3C(=O)CCCC(=O)O)cc2c1 (stereo not given)
[7]
  IC50: 11.1 µM (active)

## Cc1cc(C(=O)N/N=C/C=C/c2ccc(Br)cc2)[nH]n1
[7]
  IC50: 7.02 µM (active)

## CCOc1cc(/C=N/NC2=NC(=O)C(CC(=O)O)S2)ccc1OCc1ccccc1Cl (stereo not given)
[20]
  IC50: 51.7 µM (active)
[7]
  IC50: 4.28 µM (active)

## C[C@H]1CN([C@@H](C)CO)S(=O)(=O)c2ccc(C#Cc3ccncc3)cc2O[C@H]1CN(C)C(=O)C1CCCCC1
[21]
  AC50: 52.3 µM (active)
[22]
  AC50: 12.9 µM (active)
[23]
  AC50: 2.68 µM (active)
